Experimental data published in ChEMBL document CHEMBL5614382, “Discovery of a new 1-(phenylsulfonyl)-1H-indole derivative targeting the EphA2 receptor with antiproliferative activity on U251 glioblastoma cell line” (Eur J Med Chem, 2024).

Columns and labels:
Ephrin type-A receptor 3 = biological target: T1, Ephrin type-A receptor 3 (Mus musculus, UniProt P29319); test: Displacement of biotinylated Fc-tagged ephrin-A1 from recombinant N/C-terminal 6-his tagged mouse EphA3 (Glu21 to His541 residues) preincubated for 1 hr followed by ephrin-A1-Fc addition and measured after 4 to 5 hrs by ELISA assay
T1 sequence (P29319 whole entry): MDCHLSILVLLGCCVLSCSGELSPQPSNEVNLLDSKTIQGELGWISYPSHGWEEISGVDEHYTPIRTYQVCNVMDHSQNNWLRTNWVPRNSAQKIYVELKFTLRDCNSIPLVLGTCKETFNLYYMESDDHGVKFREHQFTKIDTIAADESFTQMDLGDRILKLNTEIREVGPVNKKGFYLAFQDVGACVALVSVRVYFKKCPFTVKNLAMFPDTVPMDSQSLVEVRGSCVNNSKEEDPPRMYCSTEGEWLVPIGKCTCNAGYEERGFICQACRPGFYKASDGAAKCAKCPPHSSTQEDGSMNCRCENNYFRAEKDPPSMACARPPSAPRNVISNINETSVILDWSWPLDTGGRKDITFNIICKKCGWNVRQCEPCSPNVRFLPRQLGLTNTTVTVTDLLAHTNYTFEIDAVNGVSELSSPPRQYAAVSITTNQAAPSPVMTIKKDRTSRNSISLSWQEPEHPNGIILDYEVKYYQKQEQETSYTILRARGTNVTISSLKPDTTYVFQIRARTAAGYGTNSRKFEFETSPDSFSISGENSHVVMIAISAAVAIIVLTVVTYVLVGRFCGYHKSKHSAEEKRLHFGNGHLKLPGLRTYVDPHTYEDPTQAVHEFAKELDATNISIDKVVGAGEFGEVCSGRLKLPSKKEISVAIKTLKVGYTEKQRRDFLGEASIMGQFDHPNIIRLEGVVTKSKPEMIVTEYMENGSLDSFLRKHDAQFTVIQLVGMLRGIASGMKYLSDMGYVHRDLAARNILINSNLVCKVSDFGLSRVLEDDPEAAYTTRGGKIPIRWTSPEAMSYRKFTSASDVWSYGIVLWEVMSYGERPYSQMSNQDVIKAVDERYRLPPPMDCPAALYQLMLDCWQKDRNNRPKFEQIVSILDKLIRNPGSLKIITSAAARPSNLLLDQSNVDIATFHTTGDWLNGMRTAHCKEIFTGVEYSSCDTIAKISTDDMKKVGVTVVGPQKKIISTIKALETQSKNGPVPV

Ephrin type-A receptor 4 = Ephrin type-A receptor 4 (Mus musculus, UniProt Q03137); test: Displacement of biotinylated Fc-tagged ephrin-A1 from recombinant N/C-terminal 6-his tagged mouse EphA4 (Val20 to Thr547 residues) preincubated for 1 hr followed by ephrin-A1-Fc addition and measured after 4 to 5 hrs by ELISA assay
Ephrin type-B receptor 1 = biological target: T2, Ephrin type-B receptor 1 (Rattus norvegicus, UniProt P09759); test: Displacement of biotinylated Fc-tagged ephrin-B1 from N/C-terminal recombinant rat EphB1 (Met18 to Gln538 residues) preincubated for 1 hr followed by ephrin-B1-Fc addition and measured after 4 to 5 hrs by ELISA assay
T2 sequence (P09759 whole entry): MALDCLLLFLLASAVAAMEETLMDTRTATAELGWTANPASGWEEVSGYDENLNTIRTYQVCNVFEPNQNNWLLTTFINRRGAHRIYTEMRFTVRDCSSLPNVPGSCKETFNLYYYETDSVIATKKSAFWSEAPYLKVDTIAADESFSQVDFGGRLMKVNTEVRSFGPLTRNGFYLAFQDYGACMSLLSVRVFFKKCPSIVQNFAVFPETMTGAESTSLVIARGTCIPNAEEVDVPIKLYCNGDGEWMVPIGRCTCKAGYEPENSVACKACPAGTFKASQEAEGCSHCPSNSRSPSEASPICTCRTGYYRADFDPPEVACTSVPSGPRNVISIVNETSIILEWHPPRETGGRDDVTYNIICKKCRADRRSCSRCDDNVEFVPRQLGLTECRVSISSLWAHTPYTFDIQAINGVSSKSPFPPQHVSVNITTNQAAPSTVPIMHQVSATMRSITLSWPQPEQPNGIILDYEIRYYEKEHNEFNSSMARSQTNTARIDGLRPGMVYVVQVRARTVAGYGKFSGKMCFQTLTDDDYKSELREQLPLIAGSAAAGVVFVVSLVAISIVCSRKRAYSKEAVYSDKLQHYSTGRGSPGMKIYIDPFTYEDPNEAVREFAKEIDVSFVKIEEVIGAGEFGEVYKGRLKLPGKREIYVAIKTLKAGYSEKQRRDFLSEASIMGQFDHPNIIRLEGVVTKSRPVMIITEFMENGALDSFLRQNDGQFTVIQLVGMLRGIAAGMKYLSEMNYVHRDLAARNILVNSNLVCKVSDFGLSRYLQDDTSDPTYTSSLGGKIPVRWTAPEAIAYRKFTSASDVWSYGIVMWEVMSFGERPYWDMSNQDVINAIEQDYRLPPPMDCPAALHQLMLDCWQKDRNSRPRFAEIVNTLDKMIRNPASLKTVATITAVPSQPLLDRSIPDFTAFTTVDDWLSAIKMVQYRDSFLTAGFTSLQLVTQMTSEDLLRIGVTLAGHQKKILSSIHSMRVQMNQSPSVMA

Chain of Ephrin type-A receptor 4 (Q03137 whole entry): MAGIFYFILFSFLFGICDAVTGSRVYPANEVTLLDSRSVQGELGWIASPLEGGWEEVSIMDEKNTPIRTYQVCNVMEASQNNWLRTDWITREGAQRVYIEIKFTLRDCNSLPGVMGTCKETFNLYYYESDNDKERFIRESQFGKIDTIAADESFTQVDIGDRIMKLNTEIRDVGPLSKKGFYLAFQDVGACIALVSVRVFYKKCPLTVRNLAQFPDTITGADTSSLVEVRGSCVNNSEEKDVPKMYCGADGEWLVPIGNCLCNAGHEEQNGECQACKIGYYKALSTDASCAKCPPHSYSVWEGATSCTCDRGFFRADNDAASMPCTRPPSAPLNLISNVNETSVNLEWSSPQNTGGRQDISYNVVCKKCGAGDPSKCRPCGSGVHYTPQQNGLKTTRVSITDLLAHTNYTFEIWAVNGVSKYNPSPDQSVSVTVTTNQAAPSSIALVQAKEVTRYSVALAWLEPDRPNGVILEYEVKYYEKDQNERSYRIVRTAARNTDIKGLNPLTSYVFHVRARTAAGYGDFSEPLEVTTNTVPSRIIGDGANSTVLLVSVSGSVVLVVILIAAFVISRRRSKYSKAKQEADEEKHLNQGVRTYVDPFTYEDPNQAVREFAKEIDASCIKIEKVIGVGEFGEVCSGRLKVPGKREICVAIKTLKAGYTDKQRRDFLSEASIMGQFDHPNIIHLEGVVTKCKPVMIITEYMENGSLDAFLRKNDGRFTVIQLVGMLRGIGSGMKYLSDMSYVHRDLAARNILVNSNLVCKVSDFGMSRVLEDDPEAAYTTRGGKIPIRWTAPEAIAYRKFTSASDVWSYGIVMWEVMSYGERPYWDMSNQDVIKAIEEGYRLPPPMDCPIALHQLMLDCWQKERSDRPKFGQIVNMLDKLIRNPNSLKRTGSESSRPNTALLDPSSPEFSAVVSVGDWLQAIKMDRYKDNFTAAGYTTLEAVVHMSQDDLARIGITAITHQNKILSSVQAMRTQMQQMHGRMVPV

## C[C@H](CCC(=O)N[C@H](CC(=O)O)Cc1c[nH]c2ccccc12)[C@H]1CC[C@H]2[C@@H]3CC=C4C[C@@H](O)CC[C@]4(C)[C@H]3CC[C@]12C
Ephrin type-A receptor 3
  IC50: 4.1 µM
Ephrin type-A receptor 4
  IC50: 2.8 µM
Ephrin type-B receptor 1
  IC50: 7.7 µM

## C[C@H](CCC(=O)N[C@H](CC(=O)O)Cc1cn(S(=O)(=O)c2ccccc2)c2ccccc12)[C@H]1CC[C@H]2[C@@H]3CC=C4C[C@@H](O)CC[C@]4(C)[C@H]3CC[C@]12C
Ephrin type-A receptor 3
  IC50: 11 µM
Ephrin type-A receptor 4
  IC50: 6.3 µM
Ephrin type-B receptor 1
  IC50: > 30 µM

## C[C@H](CCC(=O)N[C@H](CC(=O)O)Cc1cn(S(=O)(=O)c2ccc(C(F)(F)F)cc2)c2ccccc12)[C@H]1CC[C@H]2[C@@H]3CC=C4C[C@@H](O)CC[C@]4(C)[C@H]3CC[C@]12C
Ephrin type-A receptor 3
  IC50: 7.6 µM
Ephrin type-A receptor 4
  IC50: 4.2 µM
Ephrin type-B receptor 1
  IC50: > 30 µM
